Laboratory results reported in patent US9006181B2 (The Administrators of the Tulane Educational Fund, priority 2004, dated 2015).
Values joined by “and” are separate entries in the source; they are usually repeats but may differ in a detail not shown here. Equal values may be shown once. “Also recorded” adds a separate entry of the source. Where no end group is shown, it is not given here.

Key:
[1] = system: TNF-α production by human proximal tubule cells; assay: LC-induced TNF-α production by renal tubule cells, ELISA; type: cell-based
Description: TNF-α concentrations were determined by ELISA.
Varying doses of dexamethasone, PACAP38, MAPK kinase inhibitor (U0126), or PDTC were added to renal tubule cell cultures along with 50 μM LC to determine the effects on LC-induced TNF-α production, as measured by ELISA (FIG. 4).

[2] = system: ERK1/2 in human proximal tubule cells; assay: LC-induced activation of ERK1/2, phospho-ERK1/2 ELISA; type: cell-based; conditions: dexamethasone 10^−7 M, PACAP38 10^−9 M; 50 μM LC, 3 days
Description: The ERK-type MAP kinases (ERK1 and ERK2 or, collectively, ERK1/2) are activated by phosphorylation. Evidence of such activation is visualized by antibody detection techniques, using antibody specific for the phosphorylated forms of ERK1/2. […] ERK1/2 activation was determined by ELISA.

[3] = system: NFκB p50 subunit in human proximal tubule cells; assay: LC-induced activation of NFκB p50 subunit, ELISA; type: cell-based; conditions: dexamethasone 10^−7 M, PACAP38 10^−9 M; 50 μM LC, 3 days
Description: Human renal tubule cells in vitro were incubated with 50 μM LC for 3 days in the presence or absence of dexamethasone or PACAP38, and assayed by ELISA for activation of NFκB subunits (FIGS. 6 & 7). […] A human Raji cell line (B lymphocyte, Burkitt's lymphoma) was used for positive controls.

[4] = system: NCI-H929 human myeloma cell line; assay: Myeloma cell growth, colorimetric BrdU incorporation; type: cell-based
Description: A human myeloma cell line (NCI-H929), which produced the lambda (λ) light chains used supra, were grown for 3 days in media containing non-inactivated media, and in the presence or absence of dexamethasone or PACAP38 (FIG. 8). Cell growth was determined by a colorimetric assay that measured the degree of 5-bromo-2-deoxyuridine (BrdU) incorporation by the cells. […] The therapeutic actions of dexamethasone in the treatment of multiple myeloma are attributed to stimulation of apoptosis.

[5] = system: IL-6 production by human proximal tubule cells; assay: LC-induced IL6 production by renal tubule cells, ELISA; type: cell-based; conditions: for magnitude of IL6 suppression compared with dexamethasone and SB202190: 10^−9 M PACAP vs 10^−9 M dexamethasone or 10 μM SB202190
Description: The overproduction of IL6 by neoplastic cells is strongly associated with the growth of multiple myeloma. Kawano M, et al. Nature. 332: 83 (1988). Varying doses of PACAP38, dexamethasone, or p38 MAPK kinase inhibitor (SB202190) were added to renal tubule cell cultures along with 50 μM LC to determine the effects on LC-induced IL6 production, as measured by ELISA (FIG. 11).

[6] = system: p38 MAPK in human proximal tubule cells; assay: LC-induced p38 MAPK activation, ELISA for phosphorylated p38 MAPK; type: cell-based
Source text: Cytokine production may depend upon activation (phosphorylation) of p38 MAP kinase (stress-activated protein kinase 2a) isoforms.

[7] = system: SV40-immortalized human renal proximal tubule cell cultures; assay: Immunoglobulin light chain (LC)-induced damage of human renal tubule cells: morphology and survival
Description: SV40-immortalized human renal proximal tubule cell cultures were incubated with immunoglobulin light chains (LC) at 50 μM for 3 days (FIG. 2).

[8] = molecular target: T1, PAC1-R (type I PACAP receptor) (Homo sapiens, UniProt P41586); conditions: cited from earlier work
T1 sequence (P41586 21-468): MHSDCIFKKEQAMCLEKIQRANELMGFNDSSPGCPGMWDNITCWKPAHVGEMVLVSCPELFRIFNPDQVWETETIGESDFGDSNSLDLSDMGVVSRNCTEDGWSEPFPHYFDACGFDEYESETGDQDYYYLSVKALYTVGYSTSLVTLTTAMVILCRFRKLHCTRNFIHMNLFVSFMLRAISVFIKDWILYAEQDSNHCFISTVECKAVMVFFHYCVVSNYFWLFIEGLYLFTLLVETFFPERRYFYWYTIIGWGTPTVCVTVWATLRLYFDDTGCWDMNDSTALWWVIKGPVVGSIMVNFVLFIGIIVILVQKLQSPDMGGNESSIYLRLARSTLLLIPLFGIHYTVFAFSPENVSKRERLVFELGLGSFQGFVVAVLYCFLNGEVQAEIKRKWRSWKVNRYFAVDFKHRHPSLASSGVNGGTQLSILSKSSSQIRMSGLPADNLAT

With “PACAP[1-38]-NH2 (HSDGIFTDSYSRYRKQMAVKKYLAAVLGKRYKQRVKNK-NH2) [PACAP38]” the “concentration achieving maximal suppression of TNF-α production” value ([1]; 50 μM LC) was 10^−9 M and 10^−7 M, the “concentration giving comparable magnitude of TNF-α suppression (dexamethasone vs PACAP38)” value ([1]; 50 μM LC) was 10^−13 M and the “concentrations showing comparable activity in suppressing LC-induced TNF-α production (pair used in FIGS. 5-7)” value ([1]; 50 μM LC) was 10^−9 M. For the same molecule, the “suppression of LC-induced TNF-α production at a single concentration” value ([1]; PACAP38 10^−9 M) was “dramatic suppression”, the “suppression of LC-induced TNF-α production” value ([1]; varying doses, 50 μM LC, 72 hours) was “suppressed by both dexamethasone and PACAP38 in a dose-dependent manner” and the “suppression of LC-induced ERK1/2 activation” value [2] was “Neither dexamethasone nor PACAP38 suppressed ERK1/2 MAPK activation; also recorded: the difference was not statistically significant; also recorded: neither dexamethasone nor PACAP38 suppressed light chain-induced ERK1/2 activation significantly”. For the same molecule, the “suppression of LC-induced NFκB p50 subunit activation” value [3] was “significantly suppressed NFκB p50 activation; also recorded: suppressed by both dexamethasone and PACAP38”, the “concentration of maximal suppression of tumor cell growth” value ([4]; 3 days) was 10^−7 M and the “lowest concentration at which tumor cell growth tended to be suppressed” value ([4]; 3 days) was 10^−13 M. For the same molecule, the “suppression of myeloma cell growth” value ([4]; 3 days, media with non-inactivated serum) was “suppressed growth of myeloma cells in cultures with approximately the same efficacy; also recorded: suppressed cell growth significantly; also recorded: dose-dependent suppression of myeloma cell growth at concentrations significantly lower than dexamethasone”, the “growth suppressed at levels as low as” value ([4]; media containing non-inactivated serum) was 10^−11 M and the “magnitude of IL6 suppression compared with dexamethasone and SB202190” value [5] was “significantly more effective at suppressing IL-6 production than dexamethasone”. The “suppression of LC-stimulated IL6 production” value ([5]; varying doses, 50 μM LC) was “significant suppression; also recorded: suppressed by both dexamethasone and PACAP38 in a dose-dependent manner”, the “reduction of p38 MAPK activation compared with SB202190 and dexamethasone” value ([6]; 10 nM PACAP38 vs 10 μM SB202190) was “comparable to reduction produced by 10 μM SB202190; also recorded: comparable to that of the specific p38 MAPK inhibitor itself; also recorded: significantly more effective at comparable doses” and the “reduction of LC-induced p38 MAPK activation” value ([6]; varying doses, 50 μM LC, 3 days) was “suppressed activation of p38 MAPK; also recorded: reduced significantly, and in a dose-dependent manner; also recorded: suppressed p38 MAPK activation in a dose-dependent manner”. For the same molecule, the “effect on LC-induced cell damage (FIG. 2C)” value ([7]; PACAP38 10 nM, LC 50 μM, 3 days) was “dramatically attenuated”, the “effect on LC-induced morphological changes (cell shrinkage, necrosis, loss of cell-cell adhesion) and survival” value ([7]; PACAP38 10^−9 M, LC 50 μM, 3 days) was “prevented the LC-induced changes; also recorded: dramatic preservation of renal tubule cell survival and morphology” and the “cell morphology with compound alone” value ([7]; PACAP38 alone, 10^−9 M, no LC) was “did not cause any alteration of cell morphology; also recorded: did not alter the human renal tubule cell morphology”.
With “PACAP: pituitary adenylate cyclase activating polypeptide; exists as PACAP38 and PACAP27; in Example 8 stands for PACAP38” the “magnitude of IL6 suppression compared with dexamethasone and SB202190” value [5] was “greater than that observed with either 10^−9 M dexamethasone or 10 μM SB202190”.
For `Oc1ccc(-c2nc(-c3ccncc3)c(-c3ccc(F)cc3)[nH]2)cc1` [SB202190, reference compound], the “reduction of p38 MAPK activation” value ([6]; SB202190 10 μM) was “reduction produced by 10 μM SB202190”.
In the case of `S=C(S)N1CCCC1` [PDTC, pyrrolidine dithiocarbamate, reference compound], the “suppression of LC-induced TNF-α production” value ([1]; PDTC 0.125 μM and 12.5 μM, both levels) is reported as “completely suppressed”.
With `N#CC(=C(/N)Sc1ccccc1N)/C(C#N)=C(\N)Sc1ccccc1N` [U0126, reference compound] the “suppression of LC-induced TNF-α production” value ([1]; U0126 high dose) was “completely suppressed”.
With `C[C@@H]1C[C@H]2[C@@H]3CCC4=CC(=O)C=C[C@]4(C)[C@@]3(F)[C@@H](O)C[C@]2(C)[C@@]1(O)C(=O)CO` [dexamethasone, reference compound] the “concentration achieving maximal suppression of TNF-α production” value ([1]; 50 μM LC) was 10^−5 M, the “concentration giving comparable magnitude of TNF-α suppression (dexamethasone vs PACAP38)” value ([1]; 50 μM LC) was 10^−9 M and the “concentrations showing comparable activity in suppressing LC-induced TNF-α production (pair used in FIGS. 5-7)” value ([1]; 50 μM LC) was 10^−7 M.
In the case of vasoactive intestinal peptide [VIP], the “binding to PAC1-R” value [8] is given as “does not bind”.
